Where a name gives a salt, the structure may show the parent alone.
Experiments:
[1] = molecular target: T1, TRPC3 (Homo sapiens, UniProt Q13507); assay: FLIPR Ca2+ fluorescence assay in inducible Flp-In T-REx-TRPC3 HEK 293 cells; assay type: cell-based; conditions: mean±SEM; for Fluorescence changes (F/F0): 200 nM trypsin, t=60 sec, n=9
T1 construct: expressed in transfected cells
T1 sequence (Q13507 74-921): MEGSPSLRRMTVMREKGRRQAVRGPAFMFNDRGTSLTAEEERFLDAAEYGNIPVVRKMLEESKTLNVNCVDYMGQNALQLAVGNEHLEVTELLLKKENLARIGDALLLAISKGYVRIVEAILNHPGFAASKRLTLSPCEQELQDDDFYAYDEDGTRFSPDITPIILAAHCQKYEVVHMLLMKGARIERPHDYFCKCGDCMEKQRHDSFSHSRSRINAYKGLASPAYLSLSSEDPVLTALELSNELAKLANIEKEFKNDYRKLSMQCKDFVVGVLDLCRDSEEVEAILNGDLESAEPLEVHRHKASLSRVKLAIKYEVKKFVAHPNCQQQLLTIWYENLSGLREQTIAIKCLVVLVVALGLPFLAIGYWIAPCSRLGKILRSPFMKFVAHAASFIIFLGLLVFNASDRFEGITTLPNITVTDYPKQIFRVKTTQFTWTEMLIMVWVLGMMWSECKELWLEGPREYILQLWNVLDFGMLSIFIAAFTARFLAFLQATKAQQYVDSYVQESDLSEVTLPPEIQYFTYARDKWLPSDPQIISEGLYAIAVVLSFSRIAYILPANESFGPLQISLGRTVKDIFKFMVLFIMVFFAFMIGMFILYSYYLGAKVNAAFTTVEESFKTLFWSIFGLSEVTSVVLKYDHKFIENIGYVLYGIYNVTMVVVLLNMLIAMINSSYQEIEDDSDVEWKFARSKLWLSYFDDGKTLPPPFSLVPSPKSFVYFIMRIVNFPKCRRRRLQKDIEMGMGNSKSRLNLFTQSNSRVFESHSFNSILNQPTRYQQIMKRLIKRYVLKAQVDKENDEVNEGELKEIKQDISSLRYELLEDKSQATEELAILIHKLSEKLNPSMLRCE
Text: (§1) To develop an assay for the identification of TRPC channel modulators, recombinant HEK 293 cell lines were produced using the Flp-In T-REx system (Invitrogen, Karsruhe, Germany) that express TRPC3 (accession # U47050) or TRPC6 (accession # AF080394) cDNAs under the control of an inducible promoter. Channel cDNAs were amplified by standard techniques and cloned into pcDNA5/FRT/TO (Invitrogen, Karlsruhe, Germany). After transfection of Flp-In T-Rex 293 cells with the channel constructs stable cell lines were selected with hygromycin. Cells were maintained according to the manufactures instructions and channel expression of was induced by addition of 1 μg/ml doxycycline for 20-30 h. Cells were plated into 96 well poly-d-lysine coated black walled clear bottom microtiter plates (BD Biosciences, Bedford, Mass.) at a density of 40000-50000 cells/well 20-30 h before experiments. […] Ca^2+ measurements were performed using a 96 well Fluorescence Imaging Plate Reader (FLIPR), (Molecular Devices Corporation, Sunnyvale, Calif.). […]
(§2) Fluorescence changes in fluo-4 loaded cells were measured using FLIPR II. […] Shown are mean fluorescence values±SEM from 9 wells each. Fluorescence values were normalized to the mean baseline fluorescence (F0).
(§3) To identify modulators of TRPC3 or TRPC6 with the assays described above induced cells were used and test compounds are added to the wells before or after application of OAG. The expected effect of inhibitors would be a reduction of the fluorescence increase. Channel activators would lead to a further increase of the OAG-evoked signal or induce an OAG-independent fluorescence increase. […]
(§4) Fluorescence changes induced by 30 μM OAG in TRPC3-and TRPC6 expressing cells were measured in the presence of the given concentrations of SKF 96365. […] Inhibition is expressed as % of control fluorescence in the absence of SKF 96365. […]

[2] = molecular target: T2, TRPC6 (Homo sapiens, UniProt Q9Y210); assay: FLIPR Ca2+ fluorescence assay in inducible Flp-In T-REx-TRPC6 HEK 293 cells; assay type: cell-based; conditions: mean±SEM; for Fluorescence changes (F/F0): 200 nM trypsin, t=60 sec, n=12
T2 construct: expressed in transfected cells
T2 sequence (Q9Y210 1-931): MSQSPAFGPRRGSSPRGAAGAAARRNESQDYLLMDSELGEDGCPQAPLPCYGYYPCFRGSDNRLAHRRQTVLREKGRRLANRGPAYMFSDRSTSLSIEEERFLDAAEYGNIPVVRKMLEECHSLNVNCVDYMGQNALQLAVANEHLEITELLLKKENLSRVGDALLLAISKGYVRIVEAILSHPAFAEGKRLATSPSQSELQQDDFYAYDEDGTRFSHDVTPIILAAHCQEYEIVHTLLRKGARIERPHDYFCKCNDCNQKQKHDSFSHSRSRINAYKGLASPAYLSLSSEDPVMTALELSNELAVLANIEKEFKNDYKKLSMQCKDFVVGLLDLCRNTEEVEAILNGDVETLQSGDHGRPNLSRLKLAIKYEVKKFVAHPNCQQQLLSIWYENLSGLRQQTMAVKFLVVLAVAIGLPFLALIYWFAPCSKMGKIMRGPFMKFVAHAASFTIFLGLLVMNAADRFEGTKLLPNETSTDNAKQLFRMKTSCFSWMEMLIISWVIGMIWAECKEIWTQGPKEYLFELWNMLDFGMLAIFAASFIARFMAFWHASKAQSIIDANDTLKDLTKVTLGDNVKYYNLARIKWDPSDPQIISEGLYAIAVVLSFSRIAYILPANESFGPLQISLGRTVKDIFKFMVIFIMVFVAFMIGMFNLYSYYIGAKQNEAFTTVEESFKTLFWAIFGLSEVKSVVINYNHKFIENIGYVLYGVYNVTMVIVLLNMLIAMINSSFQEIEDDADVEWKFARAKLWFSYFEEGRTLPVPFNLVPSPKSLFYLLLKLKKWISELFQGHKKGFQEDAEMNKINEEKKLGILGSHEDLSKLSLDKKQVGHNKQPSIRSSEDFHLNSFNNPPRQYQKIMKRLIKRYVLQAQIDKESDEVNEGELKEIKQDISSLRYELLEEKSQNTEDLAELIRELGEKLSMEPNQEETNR
Text: as §1, §2, §3, §4

IC50 ([1]; doxycycline-induced cells, 30 μM OAG, n=8, read-out: IC50, inhibition of OAG-activated fluorescence responses in TRPC3 expressing cells) | IC50 ([2]; doxycycline-induced cells, 30 μM OAG, n=8, read-out: IC50, inhibition of OAG-activated fluorescence responses in TRPC6 expressing cells) | Fluorescence changes (F/F0) ([1]; induced Flp-In T-REx-TRPC3 cells) | Fluorescence changes (F/F0) ([1]; non-induced Flp-In T-REx-TRPC3 cells) | Fluorescence changes (F/F0) ([2]; induced Flp-In T-REx-TRPC6 cells) | Fluorescence changes (F/F0) ([2]; non-induced Flp-In T-REx-TRPC6 cells) | Compound
1.8 µM | 5.04 ± 0.17 µM |  |  |  |  | COc1ccc(CCCOC(Cn2ccnc2)c2ccc(OC)cc2)cc1 (stereo not drawn) [SKF 96365, 1-(β-[3-(4-methoxyphenyl)propoxy]-4-methoxyphenethyl)-1H-imidazole-HCl]
 |  | 2.71 ± 0.022 (n = 9) | 1.65 ± 0.034 (n = 9) | 2.26 ± 0.05 (n = 12) | 0.88 ± 0.009 (n = 12) | trypsin
